In patent US11999806B2, “Broad-spectrum polypeptide against enterovirus and application thereof” (WUHAN INSTITUTE OF VIROLOGY, CHINESE ACADEMY OF SCIENCES, priority 2018, dated 2024):
Several values for one entry are separate records, joined by “and”; a condition that tells them apart may be missing. Equal entries are not always repeated. Where two headings read alike, the source gives them in different places. No end group written: not given here.

Key:
[1] = Cytotoxicity by CCK-8 in RD cells; assay type: cell-based; conditions: human
[2] = system: RD cells; test: Cytotoxicity by CCK-8 in RD cells; assay type: cell-based; conditions: RD cells; for Cell viability (%): 24 h; for cytotoxicity, result in words: CCK-8, 24 h

YGRKKRRQRRRGSGEAVREYCK [BP8] gave a viability at 24 h, 3.0625 µM ([1]; RD cells, 3.0625 μM, 24 h, CCK-8 4 h (Example 18), read-out: Cell viability (%)) of 102%, a viability at 24 h, 6.125 µM ([1]; RD cells, 6.125 μM, 24 h, CCK-8 4 h (Example 18), read-out: Cell viability (%)) of 101% and a viability at 24 h, 12.5 µM ([1]; RD cells, 12.5 μM, 24 h, CCK-8 4 h (Example 18), read-out: Cell viability (%)) of 94.9%. For the same sequence, the viability at 24 h, 25 µM ([1]; RD cells, 25 μM, 24 h, CCK-8 4 h (Example 18), read-out: Cell viability (%)) was 93.4%, the viability at 24 h, 50 µM ([1]; RD cells, 50 μM, 24 h, CCK-8 4 h (Example 18), read-out: Cell viability (%)) was 95.2% and the viability at 24 h, 100 µM ([1]; RD cells, 100 μM, 24 h, CCK-8 4 h (Example 18), read-out: Cell viability (%)) was 93.1%. The viability at 24 h, 200 µM ([1]; RD cells, 200 μM, 24 h, CCK-8 4 h (Example 18), read-out: Cell viability (%)) was 88.9%, the CC50 at 24 h ([1]; Table 1 summary, cell line not given, read-out: CC50) was over 200 µM and the “Cell viability (%)” value ([2]; 3.0625 μM, CCK-8 4 h (Example 18)) was 103.1369% and 104.4%. The “Cell viability (%)” value ([2]; 6.125 μM, CCK-8 4 h (Example 18)) was 103.5158%, the “Cell viability (%)” value ([2]; 12.5 μM, CCK-8 4 h (Example 18)) was 99.35% and 104.8421% and the “Cell viability (%)” value ([2]; 25 μM, CCK-8 4 h (Example 18)) was 97.26% and 99.85%. The “Cell viability (%)” value ([2]; 50 μM, CCK-8 4 h (Example 18)) was 94.17% and 97.64%, the “Cell viability (%)” value ([2]; 100 μM, CCK-8 4 h (Example 18)) was 93.6% and 96.25% and the “Cell viability (%)” value ([2]; 200 μM, CCK-8 4 h (Example 18)) was 92.08%. The “cytotoxicity, result in words” value [2] was “not toxic to cells within 200 μM”.
With YGRKKRRQRRRGSGEEVRQYCR [ER] the viability at 24 h, 0.46875 µM ([1]; RD cells, 0.46875 μM, 24 h, read-out: Cell viability (%)) was 99.9%, the viability at 24 h, 2.34375 µM ([1]; RD cells, 2.34375 μM, 24 h, read-out: Cell viability (%)) was 98.6% and the viability at 24 h, 4.6875 µM ([1]; RD cells, 4.6875 μM, 24 h, read-out: Cell viability (%)) was 99.1%. The viability at 24 h, 9.375 µM ([1]; RD cells, 9.375 μM, 24 h, read-out: Cell viability (%)) was 98.5%, the viability at 24 h, 18.75 µM ([1]; RD cells, 18.75 μM, 24 h, read-out: Cell viability (%)) was 99% and the viability at 24 h, 37.5 µM ([1]; RD cells, 37.5 μM, 24 h, read-out: Cell viability (%)) was 94.8%. The viability at 24 h, 75 µM ([1]; RD cells, 75 μM, 24 h, read-out: Cell viability (%)) was 89.7%, the viability at 24 h, 150 µM ([1]; RD cells, 150 μM, 24 h, read-out: Cell viability (%)) was 72.9% and the viability at 24 h, 300 µM ([1]; RD cells, 300 μM, 24 h, read-out: Cell viability (%)) was 42.2%. For the same sequence, the CC50 at 24 h ([1]; RD cells, CCK-8, 24 h, Example 15, read-out: 50% cytotoxic concentration (CC50)) was 290 µM, the “Cell viability (%)” value ([2]; 0.46875 μM) was 99.34% and 100% and the “Cell viability (%)” value ([2]; 2.34375 μM) was 98.07% and 102.7%. The “Cell viability (%)” value ([2]; 4.6875 μM) was 100.8% and 103.1%, the “Cell viability (%)” value ([2]; 9.375 μM) was 98.48% and 102.4% and the “Cell viability (%)” value ([2]; 18.75 μM) was 96.59% and 98.47%. For the same sequence, the “Cell viability (%)” value ([2]; 37.5 μM) was 95.69% and 92.24%, the “Cell viability (%)” value ([2]; 75 μM) was 89.79% and 90.36% and the “Cell viability (%)” value ([2]; 150 μM) was 74.32% and 76.72%. For the same sequence, the “Cell viability (%)” value ([2]; 300 μM) was 43.39% and 48.41% and the “cytotoxicity, result in words” value [2] was “very low toxicity”.
